According to ChEMBL document CHEMBL4145504, “Jatrophane diterpenoids from Euphorbia sororia as potent modulators against P-glycoprotein-based multidrug resistance” (Eur J Med Chem, 2018):
The source made the active and inactive calls. No cut-off for these calls is given here.

Columns and labels:
[1] = Cytotoxicity against human MCF7/ADR cells assessed as cell survival at 10 uM after 48 hrs by MTT assay relative to control; assay type: cell-based; conditions: MCF7/ADR cells (NCI/ADR-RES), read-out: Survival
[2] = organism: Homo sapiens; assay: Inhibition of P-gp in human MCF7/ADR cells assessed as potentiation of doxorubicin-induced cytotoxicity at 10 uM after 48 hrs by MTT assay relative to control; assay type: cell-based
[3] = Cytotoxicity against human MCF7 cells assessed as cell survival at 10 uM after 48 hrs by MTT assay relative to control; assay type: cell-based; conditions: read-out: Survival
[4] = system: MCF7; assay: Cytotoxicity against human MCF7 cells after 48 hrs by MTT assay; assay type: cell-based; conditions: MCF7, 48 h
[5] = system: NCI/ADR-RES; assay: Cytotoxicity against human MCF7/ADR cells after 48 hrs by MTT assay; assay type: cell-based
[6] = system: P-gp; assay: Therapeutic index, ratio of IC50 for HEK293 cells to EC50 for inhibition of P-gp in human MCF7/ADR cells assessed as potentiation of doxorubicin-induced cytotoxicity; assay type: toxicity, cell-based; conditions: HEK293 cells (IC50) and MCF7/ADR cells (EC50)
[7] = Inhibition of P-gp in human MCF7/ADR cells assessed as potentiation of doxorubicin-induced cytotoxicity after 48 hrs by MTT assay; assay type: cell-based; conditions: NCI/ADR-RES
[8] = system: HEK293; assay: Cytotoxicity against HEK293 cells after 48 hrs by MTT assay; assay type: cell-based; conditions: Homo sapiens, HEK293, 48 h
[9] = organism: Homo sapiens; assay: Inhibition of P-gp in human MCF7/ADR cells assessed as potentiation of docetaxel-induced cytotoxicity at 10 uM after 48 hrs by MTT assay relative to control; assay type: cell-based
[10] = system: NCI/ADR-RES; assay: Inhibition of P-gp expression in human MCF7/ADR cells at 5 to 10 uM after 48 hrs by Western blot analysis; assay type: functional, cell-based
[11] = organism: Homo sapiens; assay: Stimulation of human Pgp ATPase activity expressed in cell membranes at 2.5 uM after 1 hr by P-gp Glo assay relative to control
[12] = organism: Homo sapiens; assay: Inhibition of P-gp in human MCF7/ADR cells assessed as potentiation of vincristine-induced cytotoxicity at 10 uM after 48 hrs by MTT assay relative to control; assay type: cell-based
[13] = organism: Homo sapiens; assay: Stimulation of human Pgp ATPase activity expressed in cell membranes at 50 uM after 1 hr by P-gp Glo assay relative to control
[14] = Competitive inhibition of P-gp in human MCF7/ADR cells after 150 mins in presence of doxorubicin by Lineweaver-Burk plot analysis; assay type: cell-based
[15] = organism: Homo sapiens; assay: Inhibition of P-gp in human MCF7/ADR cells assessed as concentration required to restore doxorubicin accumulation in cells after 150 mins by fluorescence assay relative to MCF7 cells; assay type: cell-based
[16] = organism: Homo sapiens; assay: Inhibition of P-gp mediated efflux in human MCF7/ADR cells after 4 hrs by Rh123 dye-based flow cytometric method; assay type: cell-based
[17] = organism: Homo sapiens; assay: Inhibition of P-gp in human MCF7/ADR cells assessed as increase in doxorubicin accumulation in cells up to 20 uM after 150 mins by fluorescence assay relative to control; assay type: cell-based
[18] = organism: Homo sapiens; assay: Inhibition of P-gp in human MCF7/ADR cells assessed as increase in doxorubicin accumulation in cells after 150 mins by fluorescence assay; assay type: cell-based
[19] = Competitive inhibition of P-gp in human MCF7/ADR cells after 150 mins in presence of doxorubicin by Dixon plot analysis; assay type: cell-based
[20] = organism: Homo sapiens; assay: Inhibition of P-gp in human MCF7/ADR cells assessed as potentiation of doxorubicin-induced cytotoxicity at 1 uM preincubated with cells followed by compound washout and subsequent incubation for 6 hrs prior to addition of doxorubicin and measured after 48 hrs by MTT assay relative to control; assay type: cell-based

Row | SMILES | viability at 48 h, 10 µM [1] | fold change (FC) [2] | viability at 48 h, 10 µM [3] | IC50 [4] | IC50 [5] | selectivity ratio [6] | EC50 [7] | IC50 [8] | fold change (FC) [9] | inhibition [10] | fold change (FC) [11] | fold change (FC) [12] | fold change (FC) [13] | Ki [14] | Activity [15] | inhibition [16] | fold change (FC) [17] | inhibition [18] | Ki [19] | fold change (FC) [20]
1 | C=C1[C@H](OC(=O)C(C)C)[C@@H](OC(C)=O)[C@@H](OC(C)=O)C(C)(C)/C=C/[C@H](C)C(=O)[C@@]2(O)C[C@@](C)(OC(C)=O)[C@H](OC(C)=O)[C@@H]2[C@H]1OC(=O)c1ccccc1 | 90.3% | 9.29 | 92.4% | > 100 µM | > 100 µM | – | – | – | – | – | – | – | – | – | – | – | – | – | – | –
2 | C=C1CCC(=O)C(C)(C)/C=C/[C@H](C)C(=O)[C@@]2(OC(C)=O)C[C@H](C)[C@H](O)[C@@H]2[C@H]1OC(=O)c1ccccc1 | 90.4% | 3.52 | 95.6% | 70.9 µM | 90.9 µM | – | – | – | – | – | – | – | – | – | – | – | – | – | – | –
3 | CC(=O)O[C@H]1[C@@H](OC(C)=O)C(C)(C)/C=C/[C@H](C)[C@@H](OC(C)=O)[C@@]2(O)C[C@@](C)(OC(C)=O)[C@@H]3OC(=O)CC[C@@](O)([C@@H]1OC(=O)C(C)C)[C@H](OC(=O)c1ccccc1)[C@@H]32 | > 100% | 17.1 | 93.2% | 83.2 µM | 93 µM | 368 | 0.145 µM | 53.4 µM | – | – | – | – | – | – | – | – | – | – | – | –
4 | C=C1[C@H](OC(=O)C(C)C)[C@@H](OC(C)=O)[C@@H](OC(C)=O)C(C)(C)/C=C/[C@H](C)[C@H](OC(=O)c2ccccc2)[C@@]2(O)C[C@@](C)(OC(C)=O)[C@H](OC(C)=O)[C@@H]2[C@H]1OC(=O)C(C)CC (stereo partly specified) | 91.8% | 36.8 | 91.4% | > 100 µM | > 100 µM | 1060 | 0.0927 µM | 98.2 µM | 3.42 | inactive | 1.34 | 2.17 | 2.22 | 0.49 µM | 10 µM | Dose-dependent effect | 2.15 | Dose-dependent effect | 0.5 µM | 1.43
5 | C=C1[C@H](OC(=O)C(C)C)[C@@H](OC(C)=O)[C@@H](OC(C)=O)C(C)(C)/C=C/[C@H](C)[C@H](O)[C@@]2(O)C[C@@](C)(OC(=O)C(C)C)[C@H](OC(C)=O)[C@@H]2[C@H]1OC(=O)c1ccccc1 | 91.1% | 20.6 | 88% | > 100 µM | > 100 µM | 512 | 0.124 µM | 63.8 µM | – | – | – | – | – | – | – | – | – | – | – | –
6 | C=C1[C@H](OC(C)=O)[C@H]2[C@@H](OC(C)=O)[C@@H](C)C[C@]2(OC(C)=O)C(=O)[C@@H](C)/C=C/C(C)(C)C(=O)[C@H](OC(C)=O)[C@H]1OC(=O)CC | 94.8% | 6.65 | 85.6% | > 100 µM | > 100 µM | – | – | – | – | – | – | – | – | – | – | – | – | – | – | –
7 | C=C1[C@H](OC(C)=O)[C@H]2[C@@H](OC(C)=O)[C@@H](C)C[C@]2(OC(C)=O)C(=O)[C@@H](C)/C=C/C(C)(C)C(=O)[C@H](OC(C)=O)[C@H]1OC(=O)C(C)C | 96.2% | 9.99 | 91.9% | > 100 µM | > 100 µM | – | – | – | – | – | – | – | – | – | – | – | – | – | – | –
8 | C=C1[C@H](OC(=O)C(C)C)[C@@H](OC(C)=O)[C@@H](OC(C)=O)C(C)(C)/C=C/[C@H](C)[C@H](OC(=O)c2ccccc2)[C@@]2(O)C[C@@](C)(OC(C)=O)[C@H](OC(C)=O)[C@@H]2[C@H]1OC(=O)C(C)C | 94.5% | 10 | 94.3% | > 100 µM | > 100 µM | – | – | – | – | – | – | – | – | – | – | – | – | – | – | –
